From patent publication US11639483B2, “Macrocyclic musk lactones and uses thereof” (PHYTO TECH CORP., priority 2021, dated 2023)

Assays:
[1] = Appearance of musk in laundry detergent base; assay type: physicochemical
Experimental: Furthermore, musk lactone mixture A and other musks were also evaluated at two different loadings in laundry detergent base, as shown in Tables 38 and 39.

[2] = In use comparison of musk lactone mixture A with commercial musks in unperfumed laundry detergent, expert panel; parameters: species or system human; conditions: for DAMP HED / DAMP STR: damp towel; for DAMP HED / DRY TWL 1 DAY HED / DRY TWL 7 DAYS HED / DRY TWL 15 DAYS HED / JAR HED: hedonic; for DAMP STR / DRY TWL 1 DAY STR / DRY TWL 7 DAYS STR / DRY TWL 15 DAYS STR / JAR STR: strength; for DRY TWL 1 DAY HED / DRY TWL 1 DAY STR: dry towel 1 day; for DRY TWL 7 DAYS HED / DRY TWL 7 DAYS STR: dry towel 7 days; for DRY TWL 15 DAYS HED / DRY TWL 15 DAYS STR: dry towel 15 days; for JAR STR: jar (point of purchase)
Experimental: Olfactive evaluations in use were performed by an expert panel. The range of materials evaluated was comprehensive, including musk products commercially available: Nitromusk, Polycyclic and Macrocyclic categories (Ambrettolide, Dihydro Ambrettolide, Scentolide, Muscone, Muscenone, Velvione, Musk Ambrette, Edenolide, Ethylene Brassylate, Galaxolide, Tonalide, Habanolide, Globanone, Macrolide, Oxalide T and others).
Evaluation samples were prepared using unperfumed laundry detergent (formulation example in Example 4, Table 10) at two different dosages: 10% Solution @ 0.8% (yielding 0.08% musk lactone mixture A) or 1.5% (yielding 0.15% musk lactone mixture A) driven by relative product performance in formulas and practical laboratory practices to execute the comparisons. The concentration of musk lactone mixture A in each evaluation was at the same concentration as the commercial musk.
The evaluations were performed in use stages: Jar (POP—Point of purchase), damp towel, Dry towel (1 day) and Storage Dry towel (7 days and 15 days). A five points scale was utilized, rating both strength and hedonic character: • Strength (STR) is rated as the overall scent power coming up from the substrate, due to physicochemical properties and commonly described as a combination of diffusion, bloom, body and or volume perceptions.

[3] = Fiber substantivity: odor strength on fabric treated with softener, 14 member-panel; parameters: species or system human; conditions: 70% in isopropyl myristate dosed 0.25% w/w in softener; line dried 20 hours; 9 (very good) to 0 (very poor)
Experimental: Additionally, substantivity is evaluated olfactively by a panel after treating samples of substrate with a perfumed product, such as a fabric softener for cotton fabric or a shampoo for hair, containing the lactones described herein or other musk fragrances for comparison, according to standard procedures described below. Thus, the evaluation is essentially a relative odor intensity measurement. It is known that the perceived odor intensity of mixtures of perfume ingredients when evaluated as such is generally less than the sum of the perceived odors of the components. Thus, the perceived odor intensity of a 1:1 mixture of 2 of the components of the lactones described herein would be expected to be lower than the sum of the intensities of the separate components, i.e. in such mixtures odor suppression is generally found. On the contrary, the perceived odor intensity on substrate treated with the lactones described herein is at least equal to, but in most cases greater than the perceived intensity of substrate treated with equal amounts of the separate components.
Comparison of the fiber substantivity of single polycyclic musks and macrocyclic musks with musk mixtures is described herein. 70% Solutions in isopropyl myristate of the musks and musk mixtures to be tested are dosed at 0.25% w/w in a single Arquad fabric softener (GT 117B). The test is carried out by rinsing “6″×6” (weight: 16 g) cotton terry towel pieces at ambient temperature in a tergotometer according to the procedure below: • 3 g of fabric softener containing the test musk is added to 1 liter of water and agitated for one minute to disperse. The fabric piece is added and washed for 10 minutes with constant agitation at 100 rpm. On completion of the wash cycle, the pieces are hand wringed and line dried for 20 hours. • The cloths are assessed olfactively by a 14 member-panel. A 10-point scale is used running from 9 (very good) to 0 (very poor).

[4] = Odor strength on blotter; parameters: species or system human
Source text: The results are presented below in Table 23a and Table 23b:

[5] = Appearance (solubility) of shampoo with musk, increased load; assay type: physicochemical
[6] = 0.04% Musk in laundry detergent base
[7] = 0.08% Musk in laundry detergent base

| Appearance [1, 6] | Appearance [1, 7] | Compound | DAMP HED ([2]; 10% IPM @0.8%) | DAMP STR ([2]; 10% IPM @0.8%) | DRY TWL 1 DAY HED ([2]; 10% IPM @0.8%) | DRY TWL 1 DAY STR ([2]; 10% IPM @0.8%) | DRY TWL 7 DAYS HED ([2]; 10% IPM @0.8%) | DRY TWL 7 DAYS STR ([2]; 10% IPM @0.8%) | DRY TWL 15 DAYS HED ([2]; 10% IPM @0.8%) | DRY TWL 15 DAYS STR ([2]; 10% IPM @0.8%) | JAR STR ([2]; 10% IPM @0.8%) | JAR HED ([2]; 10% IPM @0.8%) | other results |
| --- | --- | --- | --- | --- | --- | --- | --- | --- | --- | --- | --- | --- | --- |
| Very cloudy | Phase separation | O=C1CCC/C=C\CCCCCCCCCC1 [velvione] | +/+ ((+) directionally superior) | +/+ ((+) directionally superior) | ++/++ | ++/++ | ++/++ | ++/++ | ++/++ | ++/++ | + ((+) directionally superior) | 0 (comparable) | – |
| Very cloudy | Phase separation | O=C1CCCCCCCCCCCCCCCO1 [dihydroambrettolide] | + ((+) directionally superior) | 0 ((0) comparable) | + ((+) directionally superior) | 0 ((0) comparable) | + ((+) directionally superior) | 0 ((0) comparable) | + ((+) directionally superior) | 0 ((0) comparable) | 0 ((0) comparable) | − ((−) directionally inferior) | – |
| – | – | Edenolide | −/− ((−) directionally inferior) | −/− ((−) directionally inferior) | 0/0 (comparable) | 0/0 ((0) comparable) | 0/0 (comparable) | 0/0 ((0) comparable) | 0/0 (comparable) | 0/0 ((0) comparable) | 0/0 ((0) comparable) | 0/0 (comparable) | – |
| – | – | O=C1CCCCCCCCCCCCCCCO1 [Hexadecanolide] | – | – | – | – | – | – | – | – | – | – | ODOR STRENGTH ON FABRIC TREATED WITH SOFTENER, Rating (10-point scale) [3]: 4.8; ODOR STRENGTH ON BLOTTER, Rating (10-point scale) [4]: 5.8 |
| – | – | C[C@@H]1CCCCCCCCCCCCC(=O)C1 [MUSCONE, Muscone] | + ((+) directionally superior) | ++ | ++ | + ((+) directionally superior) | ++ | + ((+) directionally superior) | ++ | + ((+) directionally superior) | ++/++ | ++/++ | – |
| – | – | COc1c(C(C)(C)C)cc([N+](=O)[O-])c(C)c1[N+](=O)[O-] [musk ambrette] | − ((−) directionally inferior) | ++ | 0 (comparable) | + ((+) directionally superior) | 0 (comparable) | + ((+) directionally superior) | 0 (comparable) | + ((+) directionally superior) | ++ | − ((−) directionally inferior) | – |
| Very cloudy | Phase separation | CC1COCc2cc3c(cc21)C(C)(C)C(C)C3(C)C (stereo not drawn) [Galaxolide, galaxolide] | – | – | – | – | – | – | – | – | – | – | ODOR STRENGTH ON FABRIC TREATED WITH SOFTENER, Rating (10-point scale) [3]: 3.8; ODOR STRENGTH ON BLOTTER, Rating (10-point scale) [4]: 5.8; DAMP HED ([2]; 10% IPM @1.5%): −−/−− ((−−) Significantly inferior); DAMP STR ([2]; 10% IPM @1.5%): −−/−− ((−−) Significantly inferior); DRY TWL 1 DAY HED ([2]; 10% IPM @1.5%): −−/−− ((−−) Significantly inferior); DRY TWL 1 DAY STR ([2]; 10% IPM @1.5%): −−/−− ((−−) Significantly inferior); DRY TWL 7 DAYS HED ([2]; 10% IPM @1.5%): −−/−− ((−−) Significantly inferior); DRY TWL 7 DAYS STR ([2]; 10% IPM @1.5%): −−/−− ((−−) Significantly inferior); DRY TWL 15 DAYS HED ([2]; 10% IPM @1.5%): −−/−− ((−−) Significantly inferior); DRY TWL 15 DAYS STR ([2]; 10% IPM @1.5%): −−/−− ((−−) Significantly inferior); JAR STR ([2]; 10% IPM @1.5%): −−/−− ((−−) Significantly inferior); JAR HED ([2]; 10% IPM @1.5%): −−/−− ((−−) Significantly inferior) |
| – | – | Scentolide | 0 / 0 (comparable) | 0 / 0 ((0) comparable) | −/− ((−) directionally inferior) | −/− ((−) directionally inferior) | −/− ((−) directionally inferior) | −/− ((−) directionally inferior) | −/− ((−) directionally inferior) | −/− ((−) directionally inferior) | 0/0 ((0) comparable) | 0/0 (comparable) | – |
| – | – | CC(=O)c1cc2c(cc1C)C(C)(C)C(C)CC2(C)C (stereo not drawn) [Tonalid, tonalid] | – | – | – | – | – | – | – | – | – | – | ODOR STRENGTH ON FABRIC TREATED WITH SOFTENER, Rating (10-point scale) [3]: 7.2; ODOR STRENGTH ON BLOTTER, Rating (10-point scale) [4]: 8.2 |
| Very cloudy | Phase separation | O=C1CCCCCCCCCCCC(=O)OCCO1 [Ethylene Brassylate, ethylene brassilate] | – | – | – | – | – | – | – | – | – | – | DAMP HED ([2]; 10% IPM @1.5%): −− /−− ((−−) Significantly inferior); DAMP STR ([2]; 10% IPM @1.5%): −− /−− ((−−) Significantly inferior); DRY TWL 1 DAY HED ([2]; 10% IPM @1.5%): −−/−− ((−−) Significantly inferior); DRY TWL 1 DAY STR ([2]; 10% IPM @1.5%): −−/−− ((−−) Significantly inferior); DRY TWL 7 DAYS HED ([2]; 10% IPM @1.5%): −−/−− ((−−) Significantly inferior); DRY TWL 7 DAYS STR ([2]; 10% IPM @1.5%): −−/−− ((−−) Significantly inferior); DRY TWL 15 DAYS HED ([2]; 10% IPM @1.5%): −−/−− ((−−) Significantly inferior); DRY TWL 15 DAYS STR ([2]; 10% IPM @1.5%): −−/−− ((−−) Significantly inferior); JAR STR ([2]; 10% IPM @1.5%): −−/−− ((−−) Significantly inferior); JAR HED ([2]; 10% IPM @1.5%): −−/−− ((−−) Significantly inferior) |
| Very cloudy | Phase separation | CC1CCCCCCCCCCCCC(=O)C1 (stereo not drawn) [l-muscone, muscone laevo] | – | – | – | – | – | – | – | – | – | – | – |
| – | – | O=C1CCCCCCCCOCCCCCCO1 [OXALIDE T, Oxalide T] | 0/0 (comparable) | 0/0 ((0) comparable) | 0/0 (comparable) | 0/0 ((0) comparable) | 0/0 (comparable) | 0/0 ((0) comparable) | 0/0 (comparable) | 0/0 ((0) comparable) | 0 ((0) comparable) | − ((−) directionally inferior) | – |
| Very cloudy | Phase separation | O=C1CCCCC/C=C\CCCCCCCCO1 [Ambrettolide] | + ((+) directionally superior) | −− ((−−) Significantly inferior) | −/− ((−) directionally inferior) | −/− ((−) directionally inferior) | −/− ((−) directionally inferior) | −/− ((−) directionally inferior) | −/− ((−) directionally inferior) | −/− ((−) directionally inferior) | −− ((−−) Significantly inferior) | − ((−) directionally inferior) | appearance of shampoo formula ([5]; 0.3% musk with 0.2% fruity floral fragrance oil): cloudy; appearance of shampoo formula ([5]; lower level of ambrettolide (0.2%)): remaining clear |
| – | – | CC1CC=CCCCCCCCCCC(=O)C1 (stereo not drawn) [MUSCENONE, muscenone] | ++ | + ((+) directionally superior) | ++/++ | ++/++ | ++/++ | ++/++ | ++/++ | ++/++ | + ((+) directionally superior) | ++ | – |

| Compound | Appearance [1, 6] | Appearance [1, 7] | DAMP HED ([2]; 10% IPM @0.8%) | DAMP STR ([2]; 10% IPM @0.8%) | DRY TWL 1 DAY HED ([2]; 10% IPM @0.8%) | DRY TWL 1 DAY STR ([2]; 10% IPM @0.8%) | DRY TWL 7 DAYS HED ([2]; 10% IPM @0.8%) | DRY TWL 7 DAYS STR ([2]; 10% IPM @0.8%) | DRY TWL 15 DAYS HED ([2]; 10% IPM @0.8%) | DRY TWL 15 DAYS STR ([2]; 10% IPM @0.8%) | JAR STR ([2]; 10% IPM @0.8%) | JAR HED ([2]; 10% IPM @0.8%) | other results |
| --- | --- | --- | --- | --- | --- | --- | --- | --- | --- | --- | --- | --- | --- |
| CC(=O)c1cc2c(cc1C)C(C)(C)C(C)CC2(C)C (stereo not drawn) [tonalide/fixolide] | Very cloudy | Phase separation | – | – | – | – | – | – | – | – | – | – | – |
